The source of these data is patent US20240417439A1, “RECOMBINANT POLYPEPTIDE FOR DISRUPTING INTERACTION OF EAG2 AND KVß2 AND THERAPEUTIC APPLICATIONS THEREOF IN CANCER TREATMENT” (The Hospital for Sick Children, priority 2021, published 2024).

Non-standard residues stand in square brackets, D forms with d. No end group written: not given here.

One assay has as its system GBM532 cells. Put plainly: cell viability of GBM532 cells following peptide treatment. The class given is cell-based, human. Particulars: increasing peptide concentrations. The text has this: GBM532 cells were exposed to increasing concentrations of various peptide treatments. […] The peptide K59-78^TATwas used as a negative control.
The target in assay [1] is T1, EAG2, endogenous, mouse whole brain (mouse, UniProt Q920E3 1-988).
T1 sequence (looked up): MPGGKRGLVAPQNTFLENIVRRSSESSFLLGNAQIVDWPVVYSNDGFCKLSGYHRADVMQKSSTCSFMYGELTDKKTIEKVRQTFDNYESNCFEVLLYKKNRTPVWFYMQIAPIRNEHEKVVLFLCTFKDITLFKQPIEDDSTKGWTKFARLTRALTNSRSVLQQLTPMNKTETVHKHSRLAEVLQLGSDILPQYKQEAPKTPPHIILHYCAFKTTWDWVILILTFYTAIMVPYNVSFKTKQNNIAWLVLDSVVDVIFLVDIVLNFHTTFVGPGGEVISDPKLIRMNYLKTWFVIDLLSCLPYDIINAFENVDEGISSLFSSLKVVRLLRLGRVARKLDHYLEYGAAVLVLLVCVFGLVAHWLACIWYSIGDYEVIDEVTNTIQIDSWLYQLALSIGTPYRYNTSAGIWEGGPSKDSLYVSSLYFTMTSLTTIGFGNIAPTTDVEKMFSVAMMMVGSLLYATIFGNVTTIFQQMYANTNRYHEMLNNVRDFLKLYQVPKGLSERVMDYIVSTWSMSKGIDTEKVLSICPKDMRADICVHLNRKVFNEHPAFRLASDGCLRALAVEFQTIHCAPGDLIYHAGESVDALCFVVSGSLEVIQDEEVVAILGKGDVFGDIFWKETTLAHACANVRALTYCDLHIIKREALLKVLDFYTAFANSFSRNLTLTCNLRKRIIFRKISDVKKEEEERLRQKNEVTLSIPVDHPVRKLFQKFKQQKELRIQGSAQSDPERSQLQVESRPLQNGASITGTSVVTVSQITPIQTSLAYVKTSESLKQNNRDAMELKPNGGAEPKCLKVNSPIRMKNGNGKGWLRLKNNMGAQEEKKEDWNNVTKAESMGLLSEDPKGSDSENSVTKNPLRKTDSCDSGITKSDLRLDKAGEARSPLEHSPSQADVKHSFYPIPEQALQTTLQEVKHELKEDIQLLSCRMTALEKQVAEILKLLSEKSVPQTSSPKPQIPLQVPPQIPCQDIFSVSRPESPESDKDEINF
Put plainly: co-IP from lysates of mouse whole brains.

Turning to “Retro-inverso-DIP: D-amino acids in reverse order: VLSSRRWGKKKIINGLVVEAKGAAYSGSGSGQPRRRQRRKKRG ([dV][dL][dS][dS][dR][dR][dW]G[dK][dK][dK][dI][dI][dN]G[dL][dV][dV][dE][dA][dK]G[dA][dA][dY][dS]G[dS]G[dS]G[dQ][dP][dR][dR][dR][dQ][dR][dR][dK][dK][dR]G)”, the cell-killing activity result in the assay with GBM532 cells is “Good cell-killing activity”.

B1: Kvß2, endogenous, mouse whole brain (other, UniProt P62482 1-367, looked up)
chain: MYPESTTGSPARLSLRQTGSPGMIYSTRYGSPKRQLQFYRNLGKSGLRVSCLGLGTWVTFGGQITDEMAEHLMTLAYDNGINLFDTAEVYAAGKAEVVLGNIIKKKGWRRSSLVITTKIFWGGKAETERGLSRKHIIEGLKASLERLQLEYVDVVFANRPDPNTPMEETVRAMTHVINQGMAMYWGTSRWSSMEIMEAYSVARQFNLIPPICEQAEYHMFQREKVEVQLPELFHKIGVGAMTWSPLACGIVSGKYDSGIPPYSRASLKGYQWLKDKILSEEGRRQQAKLKELQAIAERLGCTLPQLAIAWCLRNEGVSSVLLGASNAEQLMENIGAIQVLPKLSSSIVHEIDSILGNKPYSKKDYRS
On to B1, for which, in assay [1], the binding result is on record as “no binding”.
